Source: patent US20240376153A1, “CNP CYCLIC PEPTIDE, AND MEDICINE, EXTERNAL PREPARATION AND COSMETIC EACH CONTAINING SAID CYCLIC PEPTIDE” (Igisu Co., Ltd., priority 2015, published 2024)
“Also recorded” adds a separate entry of the source. Positions of bridges follow the written chain, without caps; N, C: chain ends. Residues, ends and D or L forms follow the SMILES beside them. No end group written: not given here.

Key:
[1] = tested on: nasal cavity, the affected site; assay: Effect on nose of cyclic peptides in which amino acid was substituted; conditions: Formulation C = 30 μg/ml, nasal application once/day
Experimental: The obtained cyclic peptide was combined with purified water at 1, 5, 30, 100, 500 μg/ml and applied to the affected site. Formulations A to E in the tables refers to the cyclic peptide of 1, 5, 30, 100, 500 μg/ml, respectively.

affected site of skin = assay: Effect on skin of cyclic peptides in which amino acid was substituted; format: in vivo, human
Experimental: Formulations A to E refers to cyclic peptide concentration of 1, 5, 30, 100, 500 μg/ml, respectively.

[2] = atopic dermatitis, Formulation C (30 μg/ml in purified water) applied to affected site
[3] = atopic dermatitis, Formulation B (5 μg/ml in purified water) applied to affected site
[4] = rough skin, Formulation A (1 μg/ml)
[5] = psoriasis vulgaris, Formulation C (30 μg/ml)
[6] = rough skin, Formulation C (30 μg/ml)

With `CC[C@H](C)[C@@H]1NC(=O)CNC(=O)[C@H](CO)NC(=O)[C@H](CCSC)NC(=O)[C@H](CO)NC(=O)CNC(=O)[C@H]([C@@H](C)CC)NC(=O)[C@H](CCCNC(=N)N)NC(=O)[C@H](CC(=O)O)NC(=O)[C@H](CC(C)C)NC(=O)[C@H](CCCCN)NC(=O)[C@H](CC(C)C)NC(=O)CNC(=O)[C@H](Cc2ccccc2)NC(=O)[C@@H](N)CSSC[C@@H](C(=O)O)NC(=O)CNC1=O` [SEQ ID NO: 19] (H-CFGLKLDRIGSMSGIGC-OH; disulfide 1-17; N-terminus and C-terminus assumed) as the compound, how does the “irritation upon nasal application” value [1] read?
The value was “There was no irritation upon nasal application”.

`CC[C@H](C)[C@@H]1NC(=O)CNC(=O)[C@H](CO)NC(=O)[C@H](CCSC)NC(=O)[C@H]([C@@H](C)O)NC(=O)CNC(=O)[C@H]([C@@H](C)CC)NC(=O)[C@H](CCCNC(=N)N)NC(=O)[C@H](CC(=O)O)NC(=O)[C@H](CC(C)C)NC(=O)[C@H](CCCCN)NC(=O)[C@H](CC(C)C)NC(=O)CNC(=O)[C@H](Cc2ccccc2)NC(=O)[C@@H](N)CSSC[C@@H](C(=O)O)NC(=O)CNC1=O` [SEQ ID NO: 40] (H-CFGLKLDRIGTMSGIGC-OH; disulfide 1-17; N-terminus and C-terminus assumed) was tested. Which “irritation upon nasal application” value [1] did it give?
Its value is “There was no irritation upon nasal application”.

How did the “Post-treatment diagnostic skin impression” value (affected site of skin; psoriasis vulgaris, Formulation B (5 μg/ml)) turn out when “SEQ ID NO: 15: cyclic peptide in which one amino acid has been substituted (CFGLKLDRIGSMTGLGC; disulfide 1-17)” was run?
The value was “remarkably remitted, crusts were eliminated”.

And the “Post-treatment diagnostic skin impression” value (affected site of skin; psoriasis, Formulation B (5 μg/ml))?
The value was “After 3 min, scales were remitted. 3 min after further; also recorded: reduced”.

What about the “Post-treatment diagnostic skin impression” value (affected site of skin; rough skin, wrinkles, Formulation A (1 μg/ml)) of the same compound?
Its value is “kept moistened, facial erythema and scales were normalized”.

What about the “Post-treatment diagnostic skin impression” value (affected site of skin; seborrheic dermatitis, Formulation C (30 μg/ml)) of the same compound?
The value was “Immediately after application, itches were remitted”.

How did the “irritation upon nasal application” value [1] turn out when `CC[C@H](C)[C@@H]1NC(=O)[C@H](CCCNC(=N)N)NC(=O)[C@H](CC(=O)O)NC(=O)[C@H](CC(C)C)NC(=O)[C@H](CCCCN)NC(=O)[C@H](CC(C)C)NC(=O)CNC(=O)[C@H](Cc2ccccc2)NC(=O)[C@@H](N)CSSC[C@@H](C(=O)O)NC(=O)CNC(=O)[C@H](CC(C)C)NC(=O)CNC(=O)[C@H](CO)NC(=O)[C@H](CCSC)NC(=O)[C@H]([C@@H](C)O)NC(=O)CNC1=O` [SEQ ID NO: 10] (H-CFGLKLDRIGTMSGLGC-OH; disulfide 1-17; N-terminus and C-terminus assumed) was run?
Its value is “There was no irritation upon nasal application”.

For `CC[C@H](C)[C@@H]1NC(=O)[C@H](CCCNC(=N)N)NC(=O)[C@H](CC(=O)O)NC(=O)[C@H](CC(C)C)NC(=O)[C@H](CCCCN)NC(=O)[C@H](CC(C)C)NC(=O)CNC(=O)[C@H](Cc2ccccc2)NC(=O)[C@@H](N)CSSC[C@@H](C(=O)O)NC(=O)CNC(=O)[C@H](Cc2ccccc2)NC(=O)CNC(=O)[C@H](CO)NC(=O)[C@H](CCSC)NC(=O)[C@H](CO)NC(=O)CNC1=O` [SEQ ID NO: 21] (H-CFGLKLDRIGSMSGFGC-OH; disulfide 1-17; N-terminus and C-terminus assumed), which “irritation upon nasal application” value [1] is on record?
The value was “upon blowing. There was no irritation upon nasal”.

`CC[C@H](C)[C@@H]1NC(=O)CNC(=O)[C@H](CO)NC(=O)[C@H](CCSC)NC(=O)[C@H](CO)NC(=O)CNC(=O)[C@H]([C@@H](C)CC)NC(=O)[C@H](CCCNC(=N)N)NC(=O)[C@H](CC(=O)O)NC(=O)[C@H](CCSC)NC(=O)[C@H](CCCCN)NC(=O)[C@H](CC(C)C)NC(=O)[C@H](C)NC(=O)[C@H](Cc2ccccc2)NC(=O)[C@@H](N)CSSC[C@@H](C(=O)O)NC(=O)CNC1=O` [SEQ ID NO: 50] (H-CFALKMDRIGSMSGIGC-OH; disulfide 1-17; N-terminus and C-terminus assumed) was tested. Which “irritation upon nasal application” value [1] did it give?
The value was “stopped. There was no irritation upon nasal application”.

For `CC[C@H](C)[C@@H]1NC(=O)CNC(=O)[C@H]([C@@H](C)O)NC(=O)[C@H](CCSC)NC(=O)[C@H](CO)NC(=O)CNC(=O)[C@H]([C@@H](C)CC)NC(=O)[C@H](CCCNC(=N)N)NC(=O)[C@H](CC(=O)O)NC(=O)[C@H](CCSC)NC(=O)[C@H](CCCCN)NC(=O)[C@H](CC(C)C)NC(=O)CNC(=O)[C@H](Cc2ccccc2)NC(=O)[C@@H](N)CSSC[C@@H](C(=O)O)NC(=O)CNC1=O` [SEQ ID NO: 53] (H-CFGLKMDRIGSMTGIGC-OH; disulfide 1-17; N-terminus and C-terminus assumed), which “irritation upon nasal application” value [1] is on record?
The value was “upon blowing. There was no irritation upon nasal”.

With “SEQ ID NO: 17: cyclic peptide in which one amino acid has been substituted (CFGLKLDRIGSMSGAGC; disulfide 1-17)” as the compound, how does the “Post-treatment diagnostic skin impression” value (affected site of skin; [2]) read?
Its value is “Immediately after application, itches were eliminated; also recorded: remitted”.

For “SEQ ID NO: 49: cyclic peptide in which three amino acids have been substituted (CFALKMDRIGSMTGLGC; disulfide 1-17)”, which “Post-treatment diagnostic skin impression” value (affected site of skin; psoriasis vulgaris, Formulation A (1 μg/ml)) is on record?
Its value is “erythema were remitted”.

“SEQ ID NO: 8: cyclic peptide in which one amino acid has been substituted (CFGLKMDRIGSMSGLGC; disulfide 1-17)” was tested. Which “Post-treatment diagnostic skin impression” value (affected site of skin; atopic dermatitis, Formulation A (1 μg/ml), two-sided application (right vs left) in the same subject) did it give?
Its value is “After 1 min, erythema, infiltration, itches were remitted; also recorded: After 2 min, stining feeling was eliminated; also recorded: Immediately after application, itches were eliminated; also recorded: improved, skin texture was improved and moistened”.

And the “Post-treatment diagnostic skin impression” value (affected site of skin; [3])?
Its value is “Immediately after application, itches were eliminated,; also recorded: erythema and scales were remitted”.

And the “Post-treatment diagnostic skin impression” value (affected site of skin; [2])?
The value was “the day next, erythema was remarkably improved; also recorded: After stopping 3 days of application, the effects lasted”.

What about the “Post-treatment diagnostic skin impression” value (affected site of skin; [4]) of the same compound?
Its value is “Immediately after application itches were eliminated; also recorded: After 3 min, skin texture was improved finely, pore”.

What about the “Post-treatment diagnostic skin impression” value (affected site of skin; seborrheic dermatitis, acne (comedo), Formulation C (30 μg/ml)) of the same compound?
The value was “After 1 min, itches were eliminated; also recorded: opening became inconspicuous, acne (comedo) was reduced”.

“SEQ ID NO: 14: cyclic peptide in which one amino acid has been substituted (CFGLKLDRIGLMSGLGC; disulfide 1-17)” was tested. Which “Post-treatment diagnostic skin impression” value (affected site of skin; [3]) did it give?
The value was “After 1 min, itches, scales, erythema”.

And the “Post-treatment diagnostic skin impression” value (affected site of skin; [5])?
Its value is “After 3 min, scales, crusts and infiltration were remitted”.

How did the “Post-treatment diagnostic skin impression” value (affected site of skin; atopic dermatitis, Formulation A (1 μg/ml in purified water) applied to affected site) turn out when “SEQ ID NO: 37: cyclic peptide in which two amino acids have been substituted (CFGLKMDRIGSMTGLGC; disulfide 1-17)” was run?
The value was “After 2 min, itches were eliminated”.

And the “Post-treatment diagnostic skin impression” value (affected site of skin; [2])?
The value was “Immediately after application, itches were remitted,; also recorded: erythema, infiltration and scales were remarkably improved”.

With “SEQ ID NO: 12: cyclic peptide in which one amino acid has been substituted (CFGLKLDRIGVMSGLGC; disulfide 1-17)” as the compound, how does the “Post-treatment diagnostic skin impression” value (affected site of skin; [6]) read?
The value was “improved”.

With “SEQ ID NO: 35: cyclic peptide in which two amino acids have been substituted (CFALKLDRIGSMSGIGC; disulfide 1-17)” as the compound, how does the “Post-treatment diagnostic skin impression” value (affected site of skin; [3]) read?
The value was “Immediately after application, itches were eliminated,; also recorded: erythema ard scales were remarkably improved”.

And the “Post-treatment diagnostic skin impression” value (affected site of skin; [2])?
The value was “After 1 min, itches were eliminated; also recorded: After 2 min, scales and erythema were remarkably improved; also recorded: After 3 min, skin was almost normalized and moisturized”.

Which “Post-treatment diagnostic skin impression” value (affected site of skin; eczema, large winkles, Formulation B (5 μg/ml)) does the source give for “SEQ ID NO: 6: cyclic peptide in which one amino acid has been substituted (CFALKLDRIGSMSGLGC; disulfide 1-17)” here?
The value was “Immediately after application, itches were eliminated”.

And the “Post-treatment diagnostic skin impression” value (affected site of skin; [6])?
Its value is “texture was improved. After 2 min, wrinkles were shallowed,; also recorded: skin was full and given resilience; also recorded: Immediately after application, itches were eliminated, skin”.

Which “Post-treatment diagnostic skin impression” value (affected site of skin; [5]) does the source give for “SEQ ID NO: 32 (CFALKMDRIGSMSGLGC; disulfide 1-17)” here?
The value was “remitted. After 10 min, erythema was further remitted”.

What about the “Post-treatment diagnostic skin impression” value (affected site of skin; rough skin, acne (comedo), Formulation C (30 μg/ml)) of the same compound?
Its value is “Immediately after application, itches were eliminated; also recorded: (comedo) was reduced”.

What does the source list for “SEQ ID NO: 51: cyclic peptide in which three amino acids have been substituted (CFGLKMDRIGTMTGLGC; disulfide 1-17)”?
Post-treatment diagnostic skin impression (affected site of skin; [2]): Immediately after application, itches were eliminated; also recorded: scratch scars were remitted; Post-treatment diagnostic skin impression (affected site of skin; eczema, Formulation B (5 μg/ml)): Immediately after application, itches were eliminated; also recorded: After 3 min, erythema and infiltration were remitted

What does the source list for “SEQ ID NO: 38: cyclic peptide in which two amino acids have been substituted (CFGLKMDRIGSMSGIGC; disulfide 1-17)”?
Post-treatment diagnostic skin impression (affected site of skin; [2]): After 1 min, itches were eliminated; also recorded: improved. After 3 min, skin was almost normalized and; also recorded: moisturized; Post-treatment diagnostic skin impression (affected site of skin; contact dermatitis, Formulation C (30 μg/ml)): After 1 min, itches was remitted; also recorded: After 3 min, swelling lessened, erythema was remitted; Post-treatment diagnostic skin impression (affected site of skin; [5]): After 3 min, scales and infiltration were remitted; Post-treatment diagnostic skin impression (affected site of skin; rough skin, contact dermatitis, Formulation A (1 μg/ml), two-sided application (right vs left)): After 2 min, rought desiccation and erythema was remitted,; also recorded: skin texture was improved and moisturized; Post-treatment diagnostic skin impression (affected site of skin; rough skin, wrinkles, Formulation B (5 μg/ml)): shallowed, skin was full and given resilience.; Post-treatment diagnostic skin impression (affected site of skin; [4]): kept moistened.
